Source: US20150065343A1, “Acrylamide compounds for combating invertebrate pests” (priority 2012, published 2015)

What was measured:
Format in all cases: in vivo
[1] = system: Orchid thrips (dichromothrips corbetti); test: B.5 Orchid thrips floral-immersion test; conditions: 96 h, adult thrips, after 4 days, read-out: mortality in comparison with untreated controls
Method: B.5 Orchid thrips (dichromothrips corbetti)
Dichromothaps corbetti adults used for bioassay were obtained from a colony maintained continuously under laboratory conditions. For testing purposes, the test compound was diluted to a concentration of 500 ppm (wt compound: vol diluent) in a 1:1 mixture of acetone:water (vol:vol), plus 0.01% vol/vol Kinetic® surfactant.
Thrips potency of each compound was evaluated by using a floral-immersion technique. Plastic petri dishes were used as test arenas. All petals of individual, intact orchid flowers were dipped into treatment solution and allowed to dry. Treated flowers were placed into individual petri dishes along with 10-15 adult thrips. The petri dishes were then covered with lids. All test arenas were held under continuous light and a temperature of about 28° C. for duration of the assay. After 4 days, the numbers of live thrips were counted on each flower, and along inner walls of each petri dish. The level of thrips mortality was extrapolated from pre-treatment thrips numbers.

[2] = system: Mediterranean fruitfly (Ceratitis capitata); test: B.4 Mediterranean fruitfly microtiter plate test on insect diet with eggs; conditions: 120 h, sprayed onto insect diet at 5 μl, egg and larval mortality after 5 days, read-out: mortality in comparison with untreated controls
Method: B.4 Mediterranean fruitfly (Ceratitis capitata)
For evaluating control of Mediterranean fruitfly (Ceratitis capitata) the test unit consisted of microtiter plates containing an insect diet and 50-80 C. capitate eggs.
The compounds were formulated using a solution containing 75% v/v water and 25% v/v DMSO. Different concentrations of formulated compounds were sprayed onto the insect diet at 5 μl, using a custom built micro atomizer, at two replications.
(§1) After application, microtiter plates were incubated at about 28±1° C. and about 80±5% relative humidity for 5 days. Egg and larval mortality was then visually assessed.

[3] = system: Southern armyworm (Spodoptera eridania); test: B.7 Southern armyworm spray test on lima bean plants; conditions: foliar, 96 h, sprayed lima bean foliage, armyworm larvae, 4 days after treatment, read-out: mortality in comparison with untreated controls
Method: B.7 Southern armyworm (Spodoptera eridania)
(§2) The active compounds were formulated in cyclohexanone as a 10,000 ppm solution supplied in tubes. The tubes were inserted into an automated electrostatic sprayer equipped with an atomizing nozzle and they served as stock solutions for which lower dilutions were made in 50% acetone:50% water (v/v). A nonionic surfactant (Kinetic®) was included in the solution at a volume of 0.01% (v/v).
Lima bean plants (variety Sieva) were grown 2 plants to a pot and selected for treatment at the 1st true leaf stage. Test solutions were sprayed onto the foliage by an automated electrostatic plant sprayer equipped with an atomizing spray nozzle. The plants were dried in the sprayer fume hood and then removed from the sprayer. Each pot was placed into perforated plastic bags with a zip closure. About 10 to 11 armyworm larvae were placed into the bag and the bags zipped closed. Test plants were maintained in a growth room at about 25° C. and about 20-40% relative humidity for 4 days, avoiding direct exposure to fluorescent light (24 hour photoperiod) to prevent trapping of heat inside the bags. Mortality and reduced feeding were assessed 4 days after treatment, compared to untreated control plants.

[4] = system: Vetch aphid (Megoura viciae); test: B.8 Vetch aphid test on broad bean leaf disks in 24-well plates; conditions: foliar, 120 h, sprayed onto leaf disks at 2.5 μl, adult aphids, 5 days, read-out: mortality in comparison with untreated controls
Method: B.8 Vetch aphid (Megoura viciae)
For evaluating control of vetch aphid (Megoura viciae) through contact or systemic means the test unit consisted of 24-well-microtiter plates containing broad bean leaf disks.
The compounds were formulated using a solution containing 75% v/v water and 25% v/v DMSO. Different concentrations of formulated compounds were sprayed onto the leaf disks at 2.5 μl, using a custom built micro atomizer, at two replications.
After application, the leaf disks were air-dried and 5-8 adult aphids placed on the leaf disks inside the microtiter plate wells. The aphids were then allowed to suck on the treated leaf disks and incubated at about 23±1° C. and about 50±5% relative humidity for 5 days. Aphid mortality and fecundity was then visually assessed.

[5] = system: Green peach aphid (Myzus persicae); test: B.3 Green peach aphid systemic test, artificial diet in 96-well plates; conditions: 72 h, adult aphids, 3 days, read-out: mortality in comparison with untreated controls
From the text: B.3 Green peach aphid (Myzus persicae)
For evaluating control of green peach aphid (Myzus persicae) through systemic means the test unit consisted of 96-well-microtiter plates containing liquid artificial diet under an artificial membrane.
The compounds were formulated using a solution containing 75% v/v water and 25% v/v DMSO. Different concentrations of formulated compounds were pipetted into the aphid diet, using a custom built pipetter, at two replications.
After application, 5-8 adult aphids were placed on the artificial membrane inside the microtiter plate wells. The aphids were then allowed to suck on the treated aphid diet and incubated at about 23+1° C. and about 50+5% relative humidity for 3 days. Aphid mortality and fecundity was then visually assessed.

[6] = system: Silverleaf whitefly (bernisia argentifolii); test: B.6 Silverleaf whitefly spray test on cotton plants; conditions: Bemisia argentifolii, 72 h, sprayed cotton plants, whitefly adults, 3 days after treatment, read-out: mortality in comparison with untreated controls
From the text: B.6 Silverleaf whitefly (bernisia argentifolii)
as §2
Cotton plants at the cotyledon stage (one plant per pot) were sprayed by an automated electrostatic plant sprayer equipped with an atomizing spray nozzle. The plants were dried in the sprayer fume hood and then removed from the sprayer. Each pot was placed into a plastic cup and about 10 to 12 whitefly adults (approximately 3-5 days old) were introduced. The insects were collected using an aspirator and a nontoxic Tygon® tubing connected to a barrier pipette tip. The tip, containing the collected insects, was then gently inserted into the soil containing the treated plant, allowing insects to crawl out of the tip to reach the foliage for feeding. Cups were covered with a reusable screened lid. […] Mortality was assessed 3 days after treatment, compared to untreated control plants.

[7] = system: Boll weevil (Anthonomus grandis); test: B.10 Boll weevil microtiter plate test on insect diet with eggs; conditions: 120 h, sprayed onto insect diet at 20 μl, egg and larval mortality after 5 days, read-out: mortality in comparison with untreated controls
Method: B.10 Boll weevil (Anthonomus grandis)
For evaluating control of boll weevil (Anthonomus grandis) the test unit consisted of 24-well-microtiter plates containing an insect diet and 20-30 A. grandis eggs.
The compounds were formulated using a solution containing 75% v/v water and 25% v/v DMSO. Different concentrations of formulated compounds were sprayed onto the insect diet at 20 μl, using a custom built micro atomizer, at two replications.
After application, microtiter plates were incubated at about 23±1° C. and about 50±5% relative humidity for 5 days. Egg and larval mortality was then visually assessed.

[8] = system: Tobacco budworm (Heliothis virescens); test: B.9 Tobacco budworm microtiter plate test on insect diet with eggs; conditions: 120 h, sprayed onto insect diet at 10 μl, egg and larval mortality after 5 days, read-out: mortality in comparison with untreated controls
Method: B.9 Tobacco budworm (Heliothis virescens) HELVI
For evaluating control of tobacco budworm (Heliothis virescens) the test unit consisted of 96-well-microtiter plates containing an insect diet and 15-25 H. virescens eggs.
The compounds were formulated using a solution containing 75% v/v water and 25% v/v DMSO. Different concentrations of formulated compounds were sprayed onto the insect diet at 10 μl, using a custom built micro atomizer, at two replications.
as §1

[9] = system: Diamond back moth (Plutella xylostella); test: B.2 Diamond back moth leaf-dip test on Chinese cabbage; conditions: dipped Chinese cabbage leaves, mortality recorded 24, 72 and 120 hours after treatment, read-out: mortality in comparison with untreated controls
Method: B.2 Diamond back moth (Plutella xylostella)
Leaves of Chinese cabbage were dipped in test solution and air-dried. Treated leaves were placed in petri dished lined with moist filter paper. Mortality was recorded 24, 72, and 120 hours after treatment.

CNC(=O)N/N=C/c1sc(/C=C/C(=O)NC(c2cccc(C(F)(F)F)c2)C(F)(F)F)cc1C (centres unmarked) [Compound 1-1, (E)-3-[4-methyl-5-[(E)-(methylcarbamoylhydrazono)methyl]-2-thienyl]-N-[2,2,2-trifluoro-1-[3-(trifluoromethyl)phenyl]ethyl]prop-2-enamide]
≥ 75%: mortality at 500 ppm [1] | mortality at 2500 ppm [2] | mortality at 300 ppm [3] | mortality at 2500 ppm [4] | mortality at 2500 ppm [5] | mortality at 300 ppm [6] | mortality at 2500 ppm [7] | mortality at 2500 ppm [8] | mortality at 500 ppm [9]

Cc1cc(/C=C/C(=O)NC(c2cccc(C(F)(F)F)c2)C(F)(F)F)sc1C(=O)NC1CC1 (centres unmarked) [Compound 2-1, N-cyclopropyl-3-methyl-5-[(E)-3-oxo-3-[[2,2,2-trifluoro-1-[3-(trifluoromethyl)phenyl]-ethyl]amino]prop-1-enyl]thiophene-2-carboxamide]
≥ 75%: mortality at 500 ppm [1] | mortality at 2500 ppm [2] | mortality at 300 ppm [3] | mortality at 2500 ppm [4] | mortality at 2500 ppm [5] | mortality at 2500 ppm [7] | mortality at 2500 ppm [8] | mortality at 500 ppm [9]

CCN(Cc1sc(/C=C/C(=O)NC(c2cccc(C(F)(F)F)c2)C(F)(F)F)cc1C)C(=O)CS(C)(=O)=O (centres unmarked) [Compound 3-1, (E)-3-[5-[[Ethyl-(2-methylsulfonylacetyl)amino]methyl]-4-methyl-2-thienyl]-N-[2,2,2-trifluoro-1-[3-(trifluoromethyl)phenyl]ethyl]prop-2-enamide]
≥ 75%: mortality at 500 ppm [1] | mortality at 300 ppm [3] | mortality at 2500 ppm [5] | mortality at 2500 ppm [7]

CSCC(=O)NCc1sc(/C=C/C(=O)NC(c2cccc(C(F)(F)F)c2)C(F)(F)F)cc1C (centres unmarked) [Compound 3-6, (E)-3-[4-Methyl-5-[[(2-methylsulfanylacetyl)amino]methyl]-2-thienyl]-N-[2,2,2-trifluoro-1-[3-(trifluoromethyl)phenyl]ethyl]prop-2-enamide]
≥ 75%: mortality at 500 ppm [1] | mortality at 2500 ppm [5] | mortality at 2500 ppm [7]

Cc1sc(/C=C/C(=O)NC(c2cccc(C(F)(F)F)c2)C(F)(F)F)cc1C(=O)NC1CC1 (centres unmarked) [Compound 4-1, N-Cyclopropyl-2-methyl-5-[(E)-3-oxo-3-[[2,2,2-trifluoro-1-[3-(trifluoromethyl)phenyl]-ethyl]amino]prop-1-enyl]thiophene-3-carboxamide]
≥ 75%: mortality at 2500 ppm [2] | mortality at 300 ppm [3] | mortality at 2500 ppm [5] | mortality at 300 ppm [6] | mortality at 2500 ppm [7]
